# Laboratory results reported in patent US8841333B2, “Methods for treating nephrolithiasis” (Takeda Pharmaceuticals U.S.A., Inc., priority 2005, dated 2014).
# Assay: Double-blind 4-week study plus open-label extension of febuxostat in hyperuricemic subjects with gout and a history of nephrolithiasis
# Format: in vivo, human
# Method: Eighteen (18) hyperuricemic subjects with gout and a history of nephrolithiasis in their medical history were examined. Specifically, these eighteen subjects were part of a double-blind (DB) four (4) week study in which they received 40, 80 or 120 mg once daily (hereinafter referred to as “QD”) of 2-[3-cyano-4-(2-methylpropoxy)phenyl]-4-methylthiazole-5-carboxylic acid (hereinafter called “febuxostat”) or a placebo, followed by an open-label (OL) extension study of febuxostat 80 mg QD titrated to 40 mg or 120 mg QD of febuxostat based on serum uric acid levels and adverse events. The subjects were predominantly male (specifically, sixteen (16)) Caucasian, with a mean age of 55 years. Eleven (11) of the subjects had gout for more than 10 years, five (5) subjects had gout for between 5 to 10 years and two (2) subjects had gout for between 1 to 5 years. Overall, subject experienced between 1 and 20 attacks over a 2 to 45 year period prior to baseline. Twelve (12) of the subjects were classified as renally impaired (their creatinine clearance was <80 ml/minute). Six (6) subjects were considered to be uric acid overproducers (urinary uric acid excretion was greater than 800 mg/day). Comorbid conditions in these subjects included the following: hyperlipidemia (78%), hypertension (72%), obesity (56%) and coronary artery disease (17%). The mean serum urate for these subjects at baseline was 10.0 mg/dL. All subjects completed this DB study. Fifteen (15) subjects rolled over to the OL study with thirteen (13) completing treatment for a duration of greater than thirty (30) months. The majority of subjects (11/13) received daily febuxostat in the amount of 80 mg QD with two (2) subjects having their dose titrated to febuxostat 120 mg QD as per study protocol because of a post-baseline serum urate of ≧6.0 mg/dL.
compound,measurement,setting,value
"Cc1nc(-c2ccc(OCC(C)C)c(C#N)c2)sc1C(=O)O [febuxostat, 2-[3-cyano-4-(2-methylpropoxy)phenyl]-4-methylthiazole-5-carboxylic acid]",subjects reporting kidney stones,"DB and OL portions, greater than 30 months of febuxostat treatment, three stones in total, one occurred on placebo, all calcium oxalate",2 subjects out of the 18 subjects
same,adverse events,"DB and OL study, febuxostat 40-120 mg QD",self-limiting and transient
same,mean reduction in serum urate,"at last visit versus baseline, febuxostat 40, 80 or 120 mg QD",47%
same,mean serum urate at last visit,"hyperuricemic gout subjects with history of nephrolithiasis, febuxostat 40, 80 or 120 mg QD, baseline mean serum urate 10.0 mg/dL",5.2 mg/dL
